We go through one compound from patent US11260050B2, “Combination of cotinine plus antioxidant for treatment-resistant depression and correction of astrocytes functional deficit induced by depression and other neuropathological” (UNIVERSIDAD SAN SEBASTIAN, priority 2017, dated 2022).

The subject of assay [1] is conditioned mice. The experiment in a line: Forced swim test after fear conditioning and extinction (Example 4). The note with it: FC mice after extinction; Tukey: cotinine p<0.001, combination p<0.005, sertraline p<0.05. Type of assay: in vivo, Mice C57BL/6. How it is done:
(§1) Three-month-old mice (n=5-6/condition) were weighed and assigned to treatment groups. Mice were treated with vehicle or drugs, starting two h after fear conditioning and daily after behavioral testing until euthanasia. Mice received daily treatments with 1. PBS (phosphate buffer saline, pH 7.4) via intranasal; 2. Cotinine (10 mg/ml) dissolved in PBS via intranasal (IN Cot, 24 μl); 3. Krill oil dissolved in PBS, via intranasal (48 mg/ml, 24 μl); 4. Cotinine (10 mg/ml) plus krill oil dissolved in PBS, via intranasal (48 mg/ml, 24 μl); 5.
(§2) For intranasal delivery, mice were hand-restrained, placed in a supine position, and given two 12 μl drops of cotinine solutions, or PBS, into both nares consecutively. Mice were given an extra 12 μl treatment drop if the subject forcibly ejected or sneezed out the solution. Mice were held supine for 5-10 seconds after delivery to ensure that all fluid was inhaled.

The test system of assay [2] is conditioned mice. The experiment in a line: Fear retention and extinction tests after fear conditioning (Example 4). Type of assay: in vivo, Mice C57BL/6. The protocol: as §1, §2
Contextual fear conditioning was performed as described. The conditioning chamber used (33 cm×20 cm×22 cm) is surrounded by a sound-attenuating box with a camera connected to freeze frame software (MED Associates Inc.) and equipped to provide a background white noise (72 dB). The conditioning chamber contains in one side a speaker and in the opposite side has a 24V light, and a 36-bar insulated shock grid floor. To perform this test, each mouse was placed in the conditioning chamber for 2 min before the onset of a discrete tone (a sound that will last 30 seconds (sec) at 2,800 Hz and 85 dB). In the last two seconds of this tone, mice received a foot shock of 1 mA, kept in the conditioning chamber for 2 min and returned to their home cages. Between trials, the chamber was sanitized with 70% ethanol and dried. Freezing behavior was defined as the absence of all movement except the one needed for breathing was assessed using the FreezeView Software (MED Associates Inc.).
Fear retention and extinction experiments were performed as described, using the same cohorts of mice and reproduced in two separate experiments. To assess fear retention and mice underwent re-exposure to the conditioning chamber in the absence of an unconditioned stimulus (shock or auditory cues) for 3 minutes (min) in daily extinction trials. Freezing behavior was measured using the ANY-Maze® software (Stoelting CO, USA). The extinction trials were continued until the decrease in freezing behavior reached a stable level.

Regarding `CN[C@H]1CC[C@@H](c2ccc(Cl)c(Cl)c2)c2ccccc21.Cl` [Sertraline, (1S,4S)-4-(3,4-dichlorophenyl)-1,2,3,4-tetrahydro-N-methyl-1-naphthalenamine hydrochloride, reference compound], in the assay with conditioned mice [1], the “depressive-like behavior (immobility) in the forced swim test” value is reported as “significantly decreased depressive-like behavior”. Also, in the assay with conditioned mice [2] (5 days of extinction, daily treatment), the “freezing behavior during daily extinction trials (speed of fear extinction)” value is on record as “overall slower extinction of fear than controls”. Further, the “fear reaction (freezing) in the retention test” value with conditioned mice [2] (treatment started 2 h after FC, IN cotinine 10 mg/ml, IN KO 48 mg/ml, oral sertraline 3 mg/kg) was “no significant effects”.
